Test results taken from publication PMC2932657 (Chemistry & biology, 2010).

Molecular target: PimD (Streptomyces natalensis, UniProt Q9EW92)
Assay: UV-visible difference spectrophotometric titration
Format: binding

Kd: 4 µM
SMILES: C[C@@H]1C/C=C/C=C/C=C/C=C/[C@H](O[C@@H]2O[C@H](C)[C@@H](O)[C@H](N)[C@@H]2O)C[C@@H]2O[C@](O)(C[C@@H](O)C/C=C/C=C/C(=O)O1)C[C@H](O)[C@H]2C(=O)O [4,5-desepoxypimaricin]
